Measurements from patent publication US20240325370A1, “THERAPEUTIC REGIMENS OF A DEGRADER OF BRD9” (FOGHORN THERAPEUTICS INC., priority 2021, published 2024).
“Also recorded” adds a separate entry of the source.

How the values were obtained:
[1] = test system: ASKA synovial sarcoma xenografts; assay: ASKA synovial sarcoma xenograft efficacy; assay type: in vivo; conditions: for Tumor Growth (%) on Day 21 / Tumor Size (mm^3) on Day 21: Mean ± SEM; for T/C (%) / TGI (%): Day 21
Method: A study was conducted to examine anti-tumor efficacy of compound S-D1 with BIW IV dosing of the racemate, compound D1, for 3 weeks utilizing a second xenograft model of human synovial sarcoma, ASKA. Vehicle (0.5% HPMC, 0.1% Tween 80 in water, pH 1.3 to 1.5), administered orally, was used as the general comparator for all test article responses (i.e., tumor growth and body weight changes). Pazopanib and ifosfamide, two agents currently used in clinic to treat synovial sarcoma patients were compared to compound D1 treatment alone. Pazopanib was administered orally at 40 mg/kg QD and ifosfamide was given IV at 80 mg/kg QD for the first 3 days (Days 0, 1, and 2) in the 3-week treatment period, mimicking the equivalent treatment regimens for both drugs in human patients.

[2] = test system: non-synovial control cancer cell lines (293T, A549, G401); assay: Growth of non-synovial control cancer cell lines; assay type: cell-based
Method: (§1) Cells were treated with DMSO or the BRD9 degrader, Compound 1, at indicated concentrations, and proliferation was monitored from day 7 to day 14 by measuring confluency over time using an IncuCyte live cell analysis system (FIG. 4). Growth medium and compounds were refreshed every 3-4 days.
(§2) Cells were seeded into 12-well plates and treated with DMSO, 1 μM BRD9 inhibitor, Compound 2 (also known as BI-7273, see Martin et al, J Med Chem. 59 (10): 4462-4475 (2016); see structure of compound 2 below), or 1 μM BRD9 degrader, Compound 1.
(§3) The number of cells was optimized for each cell line. Growth medium and compounds were refreshed every 3-5 days. SYO1, Yamato, A549, 293T and HS-SY-II cells were fixed and stained at day 11. ASKA cells were fixed and stained at day 23. Staining was done by incubation with crystal violet solution (0.5 g Crystal Violet, 27 ml 37% Formaldehyde, 100 mL 10×PBS, 10 mL Methanol, 863 dH20 to 1 L) for 30 min followed by 3× washes with water and drying the plates for at least 24 h at room temperature. Subsequently plates were scanned on an Odyssey CLx Imaging system (FIG. 5).
(§4) Cells were seeded into 96-well ultra-low cluster plate (Costar, #7007) in 200 μL complete media and treated at day 2 with DMSO, Staurosporin, or BRD9 degrader, Compound 1, at indicated doses (FIG. 2C). Media and compounds were changed every 5 d and cell colonies were imaged at day 14.

[3] = test system: synovial sarcoma cell lines (SYO1, Yamato, HS-SY-II, and ASKA); assay: Growth of synovial sarcoma cell lines (IncuCyte confluency, crystal violet, colonies); assay type: cell-based, human; conditions: 1 μM or indicated concentrations
Method: as §1, §2, §3, §4

[4] = test system: synovial sarcoma cell lines (SYO1, HS-SY-II, and ASKA); assay: Crystal violet growth assay, synovial sarcoma cell lines, day 14; assay type: cell-based, human; conditions: treated daily
Method: (§5) Procedure: Cells were seeded into 6-well or 12-well plates and were treated daily with a BRD9 degrader (Compound 1), a bromo-domain BRD9 binder (Compound 2), E3 ligase binder (lenalidomide), DMSO, or staurosporin (positive control for cell killing), at indicated concentrations. The number of cells was optimized for each cell line. Growth media was refreshed every 5 days. By day 14, medium was removed, cells were washed with PBS, and stained using 500 μL of 0.005% (w/v) crystal violet solution in 25% (v/v) methanol for at least 1 hour at room temperature. Subsequently plates were scanned on an Odyssey CLx Imaging system.

[5] = test system: non-synovial control cancer cell lines (RD, HCT116, and Calu6); assay: Crystal violet growth assay, non-synovial control cancer cell lines, day 14; assay type: cell-based; conditions: treated daily
Method: as §5

SYO1 cells [6] = assay: Cell cycle analysis (Click-iT Plus EdU Flow Cytometry Assay); assay type: cell-based, human; conditions: 200 nM or 1 μM for 8 or 13 days; compared to DMSO and lenalidomide
Method: (§6) Procedure: SYO1 cells were treated for 8 or 13 days with DMSO, a BRD9 degrader (Compound 1) at 200 nM or 1 μM, or an E3 ligase binder (lenalidomide) at 200 nM. Compounds were refreshed every 5 days. Cell cycle analysis was performed using the Click-iTT Plus EdU Flow Cytometry Assay (Invitrogen). The apoptosis assay was performed using the Annexin V-FITC Apoptosis Detection Kit (Sigma A9210). Assays were performed according to the manufacturer's protocol.

SYO1 cells [7] = assay: Apoptosis assay (Annexin V-FITC Apoptosis Detection Kit); assay type: cell-based, human; conditions: 8 days; compared to DMSO controls
Method: as §6

[8] = 40 mg/kg QD oral 3 weeks, ASKA xenograft
[9] = 80 mg/kg QD IV Day 0 to Day 2, ASKA xenograft

Cc1ccc(Nc2nccc(N(C)c3ccc4c(C)n(C)nc4c3)n2)cc1S(N)(=O)=O [Pazopanib, reference compound]
Tumor Growth (%) on Day 21 [1, 8]: 480 ± 33%
Tumor Size (mm^3) on Day 21 [1, 8]: 537 ± 56 mm^3
T/C (%) ([1]; 40 mg/kg QD oral 3 weeks): 39.4%
TGI (%) ([1]; 40 mg/kg QD oral 3 weeks): 60.6%

COc1cc(-c2cn(C)c(=O)c3cnccc23)cc(OC)c1CN(C)C [Compound 2]
inhibition of the growth of the cells [2]: does not result in inhibition of the growth
inhibition of the growth of the cells [3]: inhibition of the growth of the cells
inhibition of the growth of the cells [4]: inhibition of the growth of the cells
inhibition of the growth of the cells [5]: did not result in inhibition of the growth

COc1cc(-c2cn(C)c(=O)c3cnccc23)cc(OC)c1CN(C)CC(=O)NCCOCCOCCNc1cccc2c1C(=O)N(C1CCC(=O)NC1=O)C2=O (centres unmarked) [Compound 1]
inhibition of the growth of the cells [2]: does not result in inhibition of the growth
inhibition of the growth of the cells [3]: inhibition of the growth of the cells
inhibition of the growth of the cells [4]: inhibition of the growth of the cells; also recorded: most significant growth inhibition
inhibition of the growth of the cells [5]: did not result in inhibition of the growth
numbers of cells in the S-phase of the cell cycle (SYO1 cells [6]): reduced numbers of cells in the S-phase
numbers of early- and late-apoptotic cells (SYO1 cells [7]): increased numbers of early- and late-apoptotic cells

O=P1(NCCCl)OCCCN1CCCl (centres unmarked) [Ifosfamide, reference compound]
Tumor Growth (%) on Day 21 [1, 9]: 820 ± 56%
Tumor Size (mm^3) on Day 21 [1, 9]: 1164 ± 126 mm^3
T/C (%) ([1]; 80 mg/kg QD IV Day 0 to Day 2): 67.2%
TGI (%) ([1]; 80 mg/kg QD IV Day 0 to Day 2): 32.8%
tolerability (body weight) ([1]; ASKA xenograft, 3-week treatment period): transient body weight loss occurred but recovered within a few days
tumor growth inhibition achieved ([1]; pazopanib 40 mg/kg QD oral, ifosfamide 80 mg/kg QD IV Days 0, 1, 2, ASKA xenograft): partial TGI
